Results published in US7135475B2, “Amide substituted xanthine derivatives” (Hoffmann-La Roche Inc., priority 2002, dated 2006).

Key:
[1] = molecular target: T1, recombinant human cytosolic PEPCK (Homo sapiens, UniProt P35558); assay: PEPCK enzyme assay (coupled pyruvate kinase/lactate dehydrogenase, absorbance at 340); assay type: biochemical; conditions: recombinant human cytosolic GST-PEPCK; GTP and OAA at 3 fold and 10 fold Km; final DMSO 10%; room temperature, twenty minutes; read-out: In vitro IC50
T1 sequence (P35558 1-622): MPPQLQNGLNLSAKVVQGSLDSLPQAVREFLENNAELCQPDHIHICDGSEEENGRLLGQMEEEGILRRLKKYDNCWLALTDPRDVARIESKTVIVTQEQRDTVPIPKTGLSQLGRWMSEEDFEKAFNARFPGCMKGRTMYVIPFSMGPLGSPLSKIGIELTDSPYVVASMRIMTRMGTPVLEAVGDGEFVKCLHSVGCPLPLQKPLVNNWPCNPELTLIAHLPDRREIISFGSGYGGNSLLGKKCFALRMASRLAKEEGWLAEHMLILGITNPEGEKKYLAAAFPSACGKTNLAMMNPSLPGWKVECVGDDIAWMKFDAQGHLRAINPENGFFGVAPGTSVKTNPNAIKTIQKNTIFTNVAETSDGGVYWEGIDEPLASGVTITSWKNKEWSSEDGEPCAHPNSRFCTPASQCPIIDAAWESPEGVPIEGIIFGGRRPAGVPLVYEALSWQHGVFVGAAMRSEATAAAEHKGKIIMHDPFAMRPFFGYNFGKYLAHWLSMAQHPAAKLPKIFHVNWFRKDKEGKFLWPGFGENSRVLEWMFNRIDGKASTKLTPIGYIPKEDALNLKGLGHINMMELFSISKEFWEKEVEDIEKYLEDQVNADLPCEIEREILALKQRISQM
Method: E. coli cells expressing GST-PEPCK were suspended in 5 volumes of lysis buffer (50 mM Tris-hydroxymethyl aminomethyl (TRIS), 150 mM sodium chloride (NaCl), 10 mM ethylene-diametetraacetic acid (EDTA), 5 mM dithiothreitol(DTT), 1% Nonidet P-40, pH 7.4) in the presence of protease inhibitors, incubated with lysozyme at 200 micrograms/ml for 30 min. at room temperature, and sonicated 4×30 seconds at 4 degrees C. After centrifugation at 12,000×g for 20 min. to remove insoluble material, the supernatant was loaded onto glutathione Sepharose (Pharmacia), washed with lysis buffer followed by washing with lysis buffer in the absence of NP-40. GST-PEPCK was eluted with the same buffer containing 20 mM glutathione. The eluted protein was concentrated and dialyzed against 25 mM Hepes(N-[2-hydroxyethyl]piperazine-N′[2-ethanesulfonic acid), 150 mM NaCl, 2.5 mM EDTA, 5 mM DTT, 30% glycerol, pH 7.4, and stored at −20 ° C.
The inhibitory effect of the compounds of the present invention on PEPCK enzymatic activity was determined using recombinant human cytosolic PEPCK, expressed and purified from E.coli as a GST-fusion. Guanosine triphosphate (GTP) and manganese dependent PEPCK enzyme activity catalyzed the decarboxylation of oxalacetate leading to the formation of guanosine diphosphate (GDP) and phosphoenol pyruvate (PEP). This reaction is coupled to pyruvate kinase and lactate dehydrogenase catalyzed reactions and the overall reaction rate determined by measuring the change in absorbance at 340 nm (Chang, H. C. and Lane M. D., J. Biol.Chem. 241:2413–2420, 1966). The following modifications were made to the protocol: 2.5 μg of recombinant, human cytosolic glutathione-S-transferase (GST)-PEPCK was added to a reaction mixture at room temperature which contained 0.3 mM GTP, 0.3 mM oxaloacetate (OAA), 3 mM magnesium chloride (MgCl2), 0.075 mM manganese chloride (MnCl2), 30 mM potassium phosphates (KPO4), pH 7.6, 1 mM dithiothreitol (DTT), 0.2 mM adenosine diphosphate (ADP), 1 mM nicotinamide adenine dinucleotide, reduced form (NADH), 0.9 Units/ml each of pyruvate kinase and lactate dehydrogenase and 1 mg/ml bovine serum albumin (BSA). Test compounds were added such that final concentration of DMSO was 10%. Reactions were run for twenty minutes.
Km values for GTP and OAA were determined according to Michelis-Menton conditions as described in Cornish-Bowden (Fundamentals of Enzyme Kinetics, 1995) in essentially the coupled assay conditions described above. […] Test compounds were added to reactions over a range of concentrations and IC50's were calculated from plots of inhibitor concentration versus enzyme rate. This method of determination of IC50 values is equally applicable to calculations based on PEPCK cellular assay.
The in vitro biological activity of several representative preferred compounds of the present invention in the foregoing PEPCK enzymatic assay is presented in Table 1.

Row | SMILES | IC50 [1] [nM] | melting point [°C]
1 | Cc1noc(C)c1C(=O)N(C)c1ccc(Cc2nc3c([nH]2)c(=O)n(Cc2ccccc2F)c(=O)n3CC2CC2)cc1 [Example 110, 3,5-Dimethyl-isoxazole-4-carboxylic acid {4-[3-cyclopropylmethyl-1-(2-fluorobenzyl)-2,6-dioxo-2,3,6,7-tetrahydro-1H-purin-8-ylmethyl]-phenyl}-methyl-amide] | 660 | –
2 | CN(C(=O)Cc1cccnc1)c1ccc(Cc2nc3c([nH]2)c(=O)n(Cc2ccccc2F)c(=O)n3CC2CC2)cc1 [Example 91, N-{4-[3-cyclopropylmethyl-1-(2-fluorobenzyl)-2,6-dioxo-2,3,6,7-tetrahydro-1H-purin-8-ylmethyl]-phenyl}-N-methyl-2-pyridin-3-yl-acetamide] | 410 | –
3 | CC(C)N(C(=O)Cc1cccnc1)c1ccc(Cc2nc3c([nH]2)c(=O)n(Cc2ccccc2F)c(=O)n3CC2CC2)cc1 [Example 120, N-{4-[3-Cyclopropylmethyl-1-(2-fluorobenzyl)-2,6-dioxo-2,3,6,7-tetrahydro-1H-purin-8-ylmethyl]-phenyl}-N-isopropyl-2-pyridin-3-yl-acetamide] | 400 | –
4 | CN(C(=O)c1ccc(N)nc1)c1ccc(Cc2nc3c([nH]2)c(=O)n(Cc2ccccc2F)c(=O)n3CC2CC2)cc1 [Example 94, 6-Amino-N-{4-[3-cyclopropylmethyl-1-(2-fluorobenzyl)-2,6-dioxo-2,3,6,7-tetrahydro-1H-purin-8-ylmethyl]-phenyl}-N-methyl-nicotinamide] | 340 | –
5 | Cc1nc(N)sc1C(=O)N(C)c1ccc(Cc2nc3c([nH]2)c(=O)n(Cc2ccccc2F)c(=O)n3CC2CC2)cc1 [Example 106, 2-Amino-4-methyl-thiazole-5-carboxylic acid {4-[3-cyclopropylmethyl-1-(2-fluorobenzyl)-2,6-dioxo-2,3,6,7-tetrahydro-1H-purin-8-ylmethyl]-phenyl}-methyl-amide] | 370 | –
6 | Cc1nnsc1C(=O)N(C)c1ccc(Cc2nc3c([nH]2)c(=O)n(Cc2ccccc2F)c(=O)n3CC2CC2)cc1 [Example 108, 4-Methyl-[1,2,3]thiadiazole-5-carboxylic acid {4-[3-cyclopropylmethyl-1-(2-fluorobenzyl)-2,6-dioxo-2,3,6,7-tetrahydro-1H-purin-8-ylmethyl]-phenyl}-methyl-amide] | 550 | –
7 | CCCCN(C(=O)c1ccc(C)nc1)c1ccc(Cc2nc3c([nH]2)c(=O)n(Cc2ccccc2F)c(=O)n3CCCC)cc1 [Example 118, N-Butyl-N-{4-[3-butyl-1-(2-fluorobenzyl)-2,6-dioxo-2,3,6,7-tetrahydro-1H-purin-8-ylmethyl]-phenyl}-6-methyl-nicotinamide] | 560 | –
8 | CC(=O)Nc1cccc(C(=O)N(C)c2ccc(Cc3nc4c([nH]3)c(=O)n(Cc3ccccc3F)c(=O)n4CC3CC3)cc2)n1 [Example 79, 6-Acetylamino-pyridine-2-carboxylic acid {4-[3-cyclopropylmethyl-1-(2-fluorobenzyl)-2,6-dioxo-2,3,6,7-tetrahydro-1H-purin-8-ylmethyl]-phenyl}-methyl-amide] | 560 | –

Next, values leading:

Row | IC50 [1] [nM] | melting point [°C] | SMILES
9 | 400 | – | Cc1cncc(C(=O)N(C)c2ccc(Cc3nc4c([nH]3)c(=O)n(Cc3ccccc3F)c(=O)n4CC3CC3)cc2)c1 [Example 85, N-{4-[3-cyclopropylmethyl-1-(2-fluorobenzyl)-2,6-dioxo-2,3,6,7-tetrahydro-1H-purin-8-ylmethyl]-phenyl}-5,N-dimethyl-nicotinamide]
10 | 460 | – | CN(C(=O)c1cnccn1)c1ccc(Cc2nc3c([nH]2)c(=O)n(Cc2ccccc2F)c(=O)n3CC2CC2)cc1 [Example 99, Pyrazine-2-carboxylic acid {4-[3-cyclopropylmethyl-1-(2-fluorobenzyl)-2,6-dioxo-2,3,6,7-tetrahydro-1H-purin-8-ylmethyl]-phenyl}-methyl-amide]
11 | 660 | – | CN(C(=O)c1csnn1)c1ccc(Cc2nc3c([nH]2)c(=O)n(Cc2ccccc2F)c(=O)n3CC2CC2)cc1 [Example 111, [1,2,3]Thiadiazole-4-carboxylic acid {4-[3-cyclopropylmethyl-1-(2-fluorobenzyl)-2,6-dioxo-2,3,6,7-tetrahydro-1H-purin-8-ylmethyl]-phenyl}-methyl-amide]
12 | 280 | – | Cc1nn(C)c(Cl)c1C(=O)N(C)c1ccc(Cc2nc3c([nH]2)c(=O)n(Cc2ccccc2F)c(=O)n3CC2CC2)cc1 [Example 104, 3-Chloro-1,5-dimethyl-1H-pyrazole-4-carboxylic acid {4-[3-cyclopropylmethyl-1-(2-fluorobenzyl)-2,6-dioxo-2,3,6,7-tetrahydro-1H-purin-8-ylmethyl]-phenyl}-methyl-amide]
13 | 420 | – | CN(C(=O)c1cccnc1)c1ccc(Cc2nc3c([nH]2)c(=O)n(Cc2ccccc2F)c(=O)n3CC2CC2)cc1 [Example 97, N-{4-[3-Cyclopropylmethyl-1-(2-fluorobenzyl)-2,6-dioxo-2,3,6,7-tetrahydro-1H-purin-8-ylmethyl]-phenyl}-N-methyl-nicotinamide]
14 | 320 | – | Cc1nc(C)c(C(=O)N(C)c2ccc(Cc3nc4c([nH]3)c(=O)n(Cc3ccccc3F)c(=O)n4CC3CC3)cc2)s1 [Example 105, 2,4-Dimethyl-thiazole-5-carboxylic acid {4-[3-cyclopropylmethyl-1-(2-fluorobenzyl)-2,6-dioxo-2,3,6,7-tetrahydro-1H-purin-8-ylmethyl]-phenyl}-methyl-amide]
15 | – | 208 to 212 | CCCCn1c(=O)n(Cc2ccccc2)c(=O)c2[nH]c(Cc3ccc(N4C(=O)CCC4=O)cc3)nc21 [Example 65, 1-Benzyl-3-butyl-8-[4-(2,5-dioxo-pyrrolidin-1-yl)-benzyl]-3,7-dihydro-purine-2,6-dione]
16 | 340 | – | COc1ccc(C(=O)N(C)c2ccc(Cc3nc4c([nH]3)c(=O)n(Cc3ccccc3F)c(=O)n4CC3CC3)cc2)c(OC)n1 [Example 90, N-{4-[3-cyclopropylmethyl-1-(2-fluorobenzyl)-2,6-dioxo-2,3,6,7-tetrahydro-1H-purin-8-ylmethyl]-phenyl}-2,6-dimethoxy-N-methyl-nicotinamide]
17 | 380 | – | CN(C(=O)c1cncnc1)c1ccc(Cc2nc3c([nH]2)c(=O)n(Cc2ccccc2F)c(=O)n3CC2CC2)cc1 [Example 96, Pyrimidine-5-carboxylic acid {4-[3-cyclopropylmethyl-1-(2-fluorobenzyl)-2,6-dioxo-2,3,6,7-tetrahydro-1H-purin-8-ylmethyl]-phenyl}-methyl-amide]
18 | 340 | – | Cc1ccc(C(=O)N(C)c2ccc(Cc3nc4c([nH]3)c(=O)n(Cc3ccccc3F)c(=O)n4CC3CCC3)cc2)cn1 [Example 88, N-{4-[3-Cyclobutylmethyl-1-(2-fluorobenzyl)-2,6-dioxo-2,3,6,7-tetrahydro-1H-purin-8-ylmethyl]-phenyl}-6,N-dimethyl-nicotinamide]
19 | 250 | – | Cc1nn(C)c(C)c1C(=O)C(=O)N(C)c1ccc(Cc2nc3c([nH]2)c(=O)n(Cc2ccccc2F)c(=O)n3CC2CC2)cc1 [Example 103, N-{4-[3-Cyclopropylmethyl-1-(2-fluorobenzyl)-2,6-dioxo-2,3,6,7-tetrahydro-1H-purin-8-ylmethyl]-phenyl}-N-methyl-2-oxo-2-(1,3,5-trimethyl-1H-pyrazol-4-yl)-acetamide]
